Source: patent US20080306007A1, “AGENTS FOR PROPHYLAXIS OR TREATMENT OF NEUROLOGICAL RELATED DISEASES AND CONDITIONS” (Newcastle Innovation Limited, priority 2007, published 2008)

What was measured:
[1] = test system: synaptosomes (SV exocytosis); assay: FM2-10 unloading (SV exocytosis) assay in synaptosomes; format: cell-based, rat; settings: evoked by 30 mM KCl; peptide preincubated 30 min before unloading
Method: Loading of FM2-10 (Molecular Probes) into recycling synaptosomal SVs was measured as previously described. Data is presented as Ca^2+-dependent FM2-10 unloading, which is the difference between release after loading in plus and minus Ca^2+ solutions. Where indicated, synaptosomes were preincubated with penetratin peptide for 30 min prior to stimulation of FM2-10 loading. […] The same assay was used to monitor the effect of penetratin peptide on SV exocytosis. However, in this instance, the synaptosomes were loaded with FM2-10 in plus Ca^2+ Krebs-like solution and, where indicated, were preincubated with penetratin peptide for 30 min prior to stimulation of FM2-10 unloading. Data is presented as Ca^2+-dependent FM2-10 unloading. The SV internalisation assay was performed as previously described.
A block in SV turnover cannot be ascribed to an inhibition of SVE until an effect on exocytosis has been excluded. Two independent exocytosis assays were conducted to assess this: endogenous glutamate release and FM2-10 unloading. […] Finally, the extent of SVE inhibition by the peptides was quantified by calculating “retrieval efficiency” which takes into account prior exocytosis; a value of less than one indicating a selective SVE inhibition. […]

[2] = test system: synaptosomes (glutamate release); assay: 4-AP evoked glutamate release (repetitive stimulation) in synaptosomes; format: cell-based, rat; settings: 4-AP 1 mM
Method: In all SV recycling studies synaptosomes were prepared from rat cerebral cortex by centrifugation on discontinuous percoll gradients (Dunkley et al. 1986). The glutamate release assay was performed as described before (Cousin and Robinson 2000a). Data is presented as Ca^2+-dependent glutamate release, calculated as the difference between release in plus and minus Ca^2+ solutions. Penetratin peptides (Genemed Synthesis) were preincubated with the synaptosomes for 30 min before stimulation and had no effect on Ca^2+-independent release of glutamate.
Selective inhibition of SVE by the phospho-box peptide should produce a rundown or fatigue of glutamate release after repeated stimuli, since the supply of SVs will progressively decline. To produce repetitive stimulation in synaptosomes the K^+ channel blocker 4-aminopyridine (4-AP) was used. This produces a tetrodotoxin-sensitive repetitive firing that mimics in vivo stimulation. It has previously been reported that 4-AP evokes continual SV recycling for at least 15 minutes in synaptosomes. […] The inset is also zoomed on the first 3 min from 4-AP addition (which was at 60 s) to highlight the lack of effect during the first 45s.

[3] = target: T1, dynamin I-syndapin I complex (Rattus norvegicus, UniProt Q9Z0W5); assay: Peptide disruption of immunoprecipitated dynamin I-syndapin I complex from nerve terminals; format: binding; settings: syndapin I or dynamin I immunoprecipitates incubated with peptide
T1 construct: Syndapin I or dynamin I were immunoprecipitated from nerve terminals; from tissue; host or cells: rat brain crude (P2) synaptosomes
T1 sequence (Q9Z0W5 whole entry, one chain of several): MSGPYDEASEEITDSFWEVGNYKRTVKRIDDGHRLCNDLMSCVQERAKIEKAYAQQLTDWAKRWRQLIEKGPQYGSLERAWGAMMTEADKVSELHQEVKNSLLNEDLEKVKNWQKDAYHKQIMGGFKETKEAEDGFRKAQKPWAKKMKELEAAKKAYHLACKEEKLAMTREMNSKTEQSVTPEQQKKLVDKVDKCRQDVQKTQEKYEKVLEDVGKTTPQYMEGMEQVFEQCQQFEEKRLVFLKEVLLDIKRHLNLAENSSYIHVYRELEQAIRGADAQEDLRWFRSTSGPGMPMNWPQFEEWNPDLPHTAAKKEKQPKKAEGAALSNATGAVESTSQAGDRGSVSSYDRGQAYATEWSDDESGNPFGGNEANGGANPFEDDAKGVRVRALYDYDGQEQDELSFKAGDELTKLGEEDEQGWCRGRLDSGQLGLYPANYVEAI
Method: To determine whether the phospho-box sequence might account for syndapin I recruitment to dynamin I, the ability of a DynI769-784AA peptide (FIG. 5a) to disrupt their interaction was tested. Syndapin I or dynamin I were immunoprecipitated from nerve terminals and the individual protein complexes were incubated with DynI769-784AA (SEQ ID No. 8) peptide (see below). Their interaction in both cases was reduced by the peptide, as indicated by the specific release of either binding partner from the bead-bound complex (FIG. 4c). No elution of endophilin I (FIG. 4c) or amphiphysin I (data not shown) was detected, highlighting the specificity of the interaction.
Crude (P2) synaptosomes were prepared from rat brain and lysed as described in Example 1.1.3. Synaptosome lysates were incubated with 5 μg of anti-syndapin I or […] pre-bound to protein G-sepharose (Roche) for 3 h at 4° C. Beads were washed with ice-cold PBS, eluted in SDS-PAGE sample buffer and blotted with anti-syndapin I, anti-endophilin I and anti-dynamin I antibodies.

[4] = test system: U2OS cells; assay: Transferrin (Tfn) endocytosis (RME) in U2OS cells; format: cell-based; settings: 15 min peptide preincubation at various concentrations, Tfn 15 min at 37° C.
Method: Briefly, non-neuronal U2OS cells were preincubated with vehicle only or each peptide at various concentrations for 15 min. Cells were then incubated with Tfn for 15 min at 37° C., acid washed, fixed and internalized Tfn was detected by fluorescence microscopy. Quantitative analysis of endocytosis in the presence of different concentrations of the peptides is shown as mean fluorescence as a percent of fluorescence in control cells. The results shown in FIG. 11 are representative of 2 independent experiments. Endocytosis in control cells (no peptide) is expressed as 100%.

“DynI769-784AA: Dynamin I phospho-box mimetic peptide (residues 769-784), AA mutant, tagged with penetratin heptapeptide RRMKWKK (RRMKWKKPAGRRAPTSAPTPQRR; listed as Rattus norvegicus)” was tested, and the FM2-10 unloading [1] was 81.1±0.8 % of control, the “effect on the first 45 sec of 4-AP evoked exocytosis” value ([2]; first 45 sec) was “without effect” and the “effect on 4-AP evoked glutamate release with continued stimulation” value ([2]; repetitive stimulation) was “activity-dependent depression of release that increased with continued stimulation”. For the same substance, the “dynamin I-syndapin I interaction (release of binding partner from bead-bound complex)” value [3] was “reduced” and the “endocytosis of transferrin (Tfn), RME” value [4] was “without effect”.
